Counter-ions that a name gives are not always drawn.
Columns and labels:
women [1] = settings: normal estradiol and testosterone levels not established before the drug was used; cited from earlier work
women [2] = assay: administration of vardenafil hydrochloride or tadalafil to women prior to sexual activity; format: in vivo, human
Method: More particularly, the initial step in the process comprising the first embodiment of the invention comprises identifying a woman desiring sexual enhancement. […] Thereafter, the woman's blood is tested to determine the levels of estradiol and testosterone. If the woman's blood contains an estradiol level within a first predetermined range and a testosterone level within a second predetermined range, the process of the present invention continues. If not, the woman is treated utilizing conventional techniques to bring the level of estradiol in her blood to within the first predetermined range and/or to bring the level of testosterone in her blood to within the second predetermined range. […]
After the required levels of estradiol and testosterone in the woman's blood have either been confirmed or established, a drug selected from the group consisting of vardenafil hydrochloride and tadalafil is administered to the woman prior to sexual activity. […] It has been determined that the selected drug should be administered at least 15-20 minutes prior to the beginning of sexual activity. The optimum time interval between administration of the selected drug and the beginning of sexual activity may vary depending on the particular circumstances and is best determined by the woman through experimentation. […]

women [3] = settings: widely used for years; cited from earlier work
women [4] = assay: unpublished clinical study of DHEA cream (transdermal) or pellets (subcutaneous) in women; format: in vivo, human
Excerpt: A third embodiment of the present invention comprises a new use of a well-established steroid hormone. The invention includes both the topical application of the hormone in cream form and the subcutaneous implantation of the hormone in pellet form for the purpose of female sexual enhancement.
The hormone is dehydroepiandrosterone (DHEA) and the carrying agent for its topical use is a proprietary compound, Q-base cream. Q-base cream is available to compound pharmacies all over the United States and consists of the following formulation: • purified water, cyclomethicone, octyl stearate, arlacel 165 (PEG-100 stearate/glyceryl stearate), sorbitol, green tea extract (organic), stearyl alcohol, cyclopentasiloxane and PEG/PPG-18/18 dimethicone, gingko extract (organic), ginseng extract (organic), tocotrienols, vitamin E acetate, wheat germ oil, edetate disodium, xanthan gum, vitamin A palmitate, coenzyme Q10, methylchloroisothiazolinone/methylisothiazolin one.
Alternatively, the carrying agent for the DHEA may comprise H-base cream. The formula for H-base cream is as follows: • water, glycerin, canola oil, stearic acid, cetyl alcohol, PEG-100 stearate, glyceryl stearate, dimethicone, magnesium aluminum silicate, propylene glycol, triethanolamine, polysorbate 60, xanthan gum, bitter almond kernel oil, aloe vera, grape seed extract, wheat germ oil, vitamin E acetate, vitamin A palmitate, Vitamin C palmitate, tetrasodium EDTA, potassium sorbate, diazolidinyl urea. H base cream is a proprietary product produced by Professional Compounds Centers of America and licensed by it.
The method of application of either the Q-base cream/DHEA mixture or the H-base cream/DHEA mixture in females is local application to the erectile tissue of the nipples and glans clitoris. The ratio of ingredients comprising the Q-base cream/DHEA mixture is between about 25 mg and about 50 mg of DHEA to about 1 cc of Q-base cream. The ratio of ingredients comprising the H-base cream/DHEA mixture is substantially the same. The resulting mixture is applied one time per day but not related to intercourse. Implantation of subcutaneous DHEA pellets is at the strength of about 25 mg of DHEA per pellet at intervals of between about 2 months and about 3 months. […] Normal levels are considered to be 50-100 picograms per milliliter.
In an unpublished clinical study of the third embodiment of the invention over the past three years patient acceptance and satisfaction has been clear-cut and in excess of 95%. The response is dependent on the patient having normal blood levels of estradiol and testosterone as well. A normal level of DHEA is about 50 to about 100 picograms per milliliter. A normal level of estradiol is about 50 to about 100 picograms per milliliter and a normal level of testosterone is about 200 to about 540 picograms per milliliter. Normal ranges for all these levels can vary from laboratory to laboratory.

women [5] = settings: headaches, facial flushing, nasal congestion, indigestion, bluish tinge to vision, blindness; cited from earlier work

CCCc1nc(C)c2c(=O)[nH]c(-c3cc(S(=O)(=O)N4CCN(CC)CC4)ccc3OCC)nn12 [vardenafil hydrochloride]
efficacy in women (women [1]): ineffective in women
enhancement of sexual arousal and sexual satisfaction in females (women [2]; drug given prior to sexual activity): significant enhancement
efficacy in women compared with men (women [2]; experiences over the past 2 years, lower dosage, used correctly (normal estradiol and testosterone)): even more effective (lower dosage) in women than in men
safety profile (women [3]): remarkable safety profiles

C[C@]12CC[C@H](O)CC1=CC[C@@H]1[C@@H]2CC[C@]2(C)C(=O)CC[C@@H]12 [DHEA, dehydroepiandrosterone]
blood levels, cream versus subcutaneous pellets (women [4]; cream once per day versus about 25 mg pellet every 2 to 3 months): Identical blood levels are achieved with both methods of application
patient acceptance and satisfaction (women [4]; third embodiment, over the past three years, normal blood levels of estradiol and testosterone): > 95%
female sexual pleasure and satisfaction including sexual arousal and achievement of orgasm (women [4]; transdermal or subcutaneous, women with normal estradiol and testosterone): enhanced
blood level above which excess androgen complications occur (male pattern hair loss, excess facial hair growth, acne) (women [4]; women): exceed 100 picograms per milliliter
safety profile of administration (women [4]; women): extraordinary

CCCc1nn(C)c2c(=O)[nH]c(-c3cc(S(=O)(=O)N4CCN(C)CC4)ccc3OCC)nc12 [VIAGRA, sildenafil citrate]
side effects observed in women using the drug for sexual enhancement (women [5]): unacceptable side effects

CN1CC(=O)N2[C@H](c3ccc4c(c3)OCO4)c3[nH]c4ccccc4c3C[C@@H]2C1=O [tadalafil]
safety profile (women [3]): remarkable safety profiles
